Assay results from article PMC7911295, “Metabolism of Zearalenone in the Rumen of Dairy Cows with and without Application of a Zearalenone-Degrading Enzyme” (Toxins, 2021).
Where two headings read alike, the source gives them in different places.

Assays:
[1] = Feeding trial in rumen-fistulated dairy cows: ZEN and ZEN metabolites in rumen fluid from reticulum, dorsal mat layer and ventral sac; type: in vivo, Holstein Friesian cows; details: for Traces still detected at (time after administration of ZEN-contaminated concentrate): time point 0 h of the ZEN+ZenA treatment; for Tmax: female, Holstein Friesian, bovine, in vivo, po, 5 mg, read-out: Time of peak concentration post-administration (converted); for Percentage of concentration relative to the sum of ZEN and ZEN metabolite concentrations: reticulorumen; for Time to elimination: ventral sac and reticulum
Excerpt: (§1) Ruminal metabolism of ZEN with and without supplementation of ZenA was investigated in four rumen-fistulated Holstein Friesian cows (sex: female; age at start: 5.9 ± 1.0 years; body weight at start: 863 ± 65 kg; physiological stage: non-lactating; general health: good, non-gestating; identification procedure: ear tag 4-digit code). The cows were part of the dairy herd of VetFarm (Teaching and Research Farm) of the University of Veterinary Medicine Vienna in Kremesberg, Austria. All procedures related to these experiments were performed according to Austrian law and following the European Guidelines for the Care and Use of Animals for Research Purpose. The animal experiment was approved by ethics and animal welfare commission of the University of Veterinary Medicine, Vienna and the Austrian Federal Ministry of Education, Science and Research (68.205/0156-WF/V/3b/2017, 30.08.2017).
(§2) In our trial setup, each animal was considered an experimental unit (n = 4). Each animal received the same treatment and served as its own control. First, each animal received ZEN-contaminated concentrate feed. Following a 48-h washout period, each animal received ZEN-contaminated concentrate feed supplemented with ZenA. In brief, for acclimatization, on the day prior to the start of the feeding trial, each animal was manually fed 4 × 500 g of control concentrate (Table 4 and Table 5). Thereafter, animals were manually fed (i) 1 × 500 g concentrate contaminated with ZEN and 3 × 500 g control concentrate on experimental day 1 (ZEN treatment), (ii) 4 × 500 g control concentrate on day 2 (ZEN washout), (iii) 1 × 500 g ZEN-contaminated concentrate supplemented with ZenA and 3 × 500 g control concentrate on day 3 (ZEN+ZenA treatment), and (iv) 4 × 500 g control concentrate on day 4 (ZEN+ZenA washout; Table 6). Animals were treated and assessed in the same random order at each experimental time point.
For production of ZEN-contaminated concentrate feed, lyophilizate of ZEN with maltodextrin as a carrier was prepared. To this end, in three parallel preparations, 50 mg ZEN (Fermentek, Jerusalem, Israel) was dissolved in 1 L RO water (pH 12; adjusted with NaOH) using a magnetic stirrer set to 400 rpm and 37 °C for 20 min. Subsequently, 100 g maltodextrin DE19 (Agrana, Vienna, Austria) was added and dissolved by stirring (400 rpm) at room temperature for 10 min. The solution was lyophilized. Lyophilizate was mixed into concentrate feed at an inclusion rate of 2%. The final concentration of ZEN in feed was aimed to be 10 mg/kg and was verified using HPLC-MS/MS analysis as described below. For production of ZEN-contaminated, ZenA-supplemented concentrate, a zearalenone hydrolase ZenA preparation (ZENzyme®; EC 3.1.1.-; BIOMIN Holding GmbH, Getzersdorf, Austria) was mixed into ZEN-contaminated concentrate to achieve an activity of 128 U/kg feed. Same as in the in vitro trial, 1 U of ZenA was defined as the enzyme activity that hydrolyzes 1 μmol ZEN per minute from 15.71 µM ZEN in Teorell Stenhagen buffer adjusted to pH 7.5 containing 0.1 mg/mL bovine serum albumin at 37 °C.
On days 1 and 3 of the trial (ZEN and ZEN+ZenA treatment, respectively), ruminal digesta samples were taken from reticulum, ventral sac and dorsal mat layer (Figure 3) immediately before concentrate feeding (0 h), as well as 15 min, 1 h, 2 h, 4 h, 7 h and 10 h after concentrate feeding (Table 6). On days 2 and 4 of the trial (washout days), ruminal digesta samples were taken immediately before first concentrate feeding (0 h), as well as 10 h after first concentrate feeding (Table 6). Ruminal digesta samples (10 mL) were taken via a rumen fistula from reticulum and ventral sac (10 cm above the bottom of the rumen) using a pump as described previously. Samples were taken from the dorsal mat layer 20 cm below the gas phase and rumen fluid was obtained by manually squeezing the samples as described previously. Samples were mixed 1:2 with acetonitrile by vortexing. […]

[2] = Feeding trial in rumen-fistulated dairy cows: ZEN and ZEN metabolites in feces; type: in vivo, Holstein Friesian cows; details: feces
Excerpt: as §1, §2
On days 1 and 3 of the experiment, feces samples were taken from the rectum immediately before concentrate feeding (0 h), as well as 10 h after concentrate feeding (Table 6) and stored at −20 °C. Aliquots (500 mg) of thoroughly homogenized feces samples were extracted for HPLC-MS/MS analysis according to the method described by Binder and coworkers.
HPLC-MS/MS analysis of ZEN, α-ZEL, β-ZEL, HZEN and DHZEN in rumen fluid and feces was performed as described for the in vitro rumen fermentation experiment (see section “In Vitro Rumen Fermentation Experiment”, subsection “Analysis of ZEN and its Metabolites”), with the following modifications. Chromatographic separation was performed with a flow rate of 0.6 mL/min, a duration of 4 min and an injection volume was 1 µL. The gradient started at 30% B which was held for 0.3 min. Subsequently, the proportion of B was increased to 80% from 0.3 to 2 min, and increased to 100% from 2 to 2.1 min. […] LODs for ZEN, α-ZEL, β-ZEL, HZEN and DHZEN in rumen fluid were 2.83 nmol/L (0.9 µg/L), 2.81 nmol/L (0.9 µg/L), 2.81 nmol/L (0.9 µg/L), 2.68 nmol/L (0.9 µg/L) and 10.27 nmol/L (3 µg/L), respectively. LOQs for ZEN, α-ZEL, β-ZEL, HZEN and DHZEN in rumen fluid were 9.43 nmol/L (3 µg/L), 9.37 nmol/L (3 µg/L), 9.37 nmol/L (3 µg/L), 8.93 nmol/L (3 µg/L) and 30.81 nmol/L (9 µg/L), respectively. LODs for ZEN, α-ZEL, β-ZEL, HZEN and DHZEN in feces were 0.03 nmol/g (8.4 ng/g), 0.03 nmol/g (8.4 ng/g), 0.03 nmol/g (8.4 ng/g), 0.03 nmol/g (8.4 ng/g) and 0.10 nmol/g (28 ng/g), respectively. LOQs for ZEN, α-ZEL, β-ZEL, HZEN and DHZEN in feces were 0.09 nmol/g (28 ng/g), 0.09 nmol/g (28 ng/g), 0.09 nmol/g (28 ng/g), 0.08 nmol/g (28 ng/g) and 0.29 nmol/g (84 ng/g), respectively.

estrogen receptors = test system: estrogen receptors; set-up: method as in doi:10.2903/j.efsa.2016.4425; details: cited from earlier work
[3] = dorsal mat layer, ZEN treatment
[4] = ZEN treatment, 15 min after feeding, from median of 3 locations
[5] = reticulum and ventral sac, ZEN treatment
[6] = ZEN+ZenA treatment, 0 h (48 h after ZEN treatment)

## C[C@H]1CCCC(=O)CCC/C=C/c2cc(O)cc(O)c2C(=O)O1 [ZEN, zearalenone]
[1]; [3]
  Low concentrations still detected at (time after concentrate feeding): 34 h
  Tmax: 1 h
[1]; dorsal mat layer
  Traces still detected at (time after administration of ZEN-contaminated concentrate): 48 h
[1]; reticulum, ZEN treatment (5 mg ZEN oral)
  Tmax: 0.25 h
[1]; ventral sac, ZEN treatment
  Tmax: 1 h
[1]; [4]
  Percentage of concentration relative to the sum of ZEN and ZEN metabolite concentrations: 100.0%
[1]; ZEN treatment, 1 h
  Percentage of concentration relative to the sum of ZEN and ZEN metabolite concentrations: 84.8%
[1]; ZEN treatment, 4 h
  Percentage of concentration relative to the sum of ZEN and ZEN metabolite concentrations: 84.1%
[1]; ZEN treatment, 7 h
  Percentage of concentration relative to the sum of ZEN and ZEN metabolite concentrations: 78.7%
[1]; ZEN treatment, 10 h
  Percentage of concentration relative to the sum of ZEN and ZEN metabolite concentrations: 74.4%
[1]; ZEN treatment, 24 h
  Percentage of concentration relative to the sum of ZEN and ZEN metabolite concentrations: 50.2%
[1]; ZEN+ZenA treatment, 15 min
  Percentage of concentration relative to the sum of ZEN and ZEN metabolite concentrations: 5.9%
[1]; ZEN+ZenA treatment, 1 h
  Percentage of concentration relative to the sum of ZEN and ZEN metabolite concentrations: 0.0 (traces) %
[1]; ZEN+ZenA treatment, 4 h
  Percentage of concentration relative to the sum of ZEN and ZEN metabolite concentrations: 0.0 (traces) %
[1]; ZEN+ZenA treatment, 7 h
  Percentage of concentration relative to the sum of ZEN and ZEN metabolite concentrations: 0.0 (traces) %
[1]; ZEN+ZenA treatment, 10 h
  Percentage of concentration relative to the sum of ZEN and ZEN metabolite concentrations: 0.0 (traces) %
[1]; [5]
  Detected up until (time after concentrate feeding): 24 h
[1]; ZEN treatment
  Time to elimination: ≤ 34 h
[2]; ZEN treatment, 10 h
  Percentage of concentration relative to the sum of ZEN and ZEN metabolite concentrations: 11.0%
[2]; [6]
  Percentage of concentration relative to the sum of ZEN and ZEN metabolite concentrations: 15.6%
[2]; ZEN+ZenA treatment, 10 h
  Percentage of concentration relative to the sum of ZEN and ZEN metabolite concentrations: 0.0 (traces) %

## C[C@H]1CCC[C@@H](O)CCC/C=C/c2cc(O)cc(O)c2C(=O)O1 [β-ZEL, β-zearalenol]
[1]; any reticulorumen location, ZEN+ZenA treatment
  Detection in rumen fluid: not detected
[1]; [3]
  Period of detection at low concentrations: 1 to 7 h
[1]; [4]
  Percentage of concentration relative to the sum of ZEN and ZEN metabolite concentrations: 0.0 (traces) %
[1]; ZEN treatment, 1 h
  Percentage of concentration relative to the sum of ZEN and ZEN metabolite concentrations: 7.6%
[1]; ZEN treatment, 4 h
  Percentage of concentration relative to the sum of ZEN and ZEN metabolite concentrations: 0.0 (traces) %
[1]; ZEN treatment, 7 h
  Percentage of concentration relative to the sum of ZEN and ZEN metabolite concentrations: 0.0 (traces) %
[1]; ZEN treatment, 10 h
  Percentage of concentration relative to the sum of ZEN and ZEN metabolite concentrations: 0.0%
[1]; ZEN treatment, 24 h
  Percentage of concentration relative to the sum of ZEN and ZEN metabolite concentrations: 0.0%
[1]; ZEN+ZenA treatment, 15 min
  Percentage of concentration relative to the sum of ZEN and ZEN metabolite concentrations: 0.0%
[1]; ZEN+ZenA treatment, 1 h
  Percentage of concentration relative to the sum of ZEN and ZEN metabolite concentrations: 0.0%
[1]; ZEN+ZenA treatment, 4 h
  Percentage of concentration relative to the sum of ZEN and ZEN metabolite concentrations: 0.0%
[1]; ZEN+ZenA treatment, 7 h
  Percentage of concentration relative to the sum of ZEN and ZEN metabolite concentrations: 0.0%
[1]; ZEN+ZenA treatment, 10 h
  Percentage of concentration relative to the sum of ZEN and ZEN metabolite concentrations: 0.0%
[1]; ZEN treatment
  Time to elimination: ≤ 34 h
[1]; ventral sac, ZEN treatment
  Time of detection at low concentrations: 1 h
[2]; ZEN treatment, 10 h
  Percentage of concentration relative to the sum of ZEN and ZEN metabolite concentrations: 78.1%
[2]; [6]
  Percentage of concentration relative to the sum of ZEN and ZEN metabolite concentrations: 69.0%
[2]; ZEN+ZenA treatment, 10 h
  Percentage of concentration relative to the sum of ZEN and ZEN metabolite concentrations: 59.1%
Estrogen receptors
  Estrogenic potency relative to ZEN: 0.2 times

## C[C@H]1CCC[C@H](O)CCC/C=C/c2cc(O)cc(O)c2C(=O)O1 [α-ZEL, α-zearalenol]
[1]; [3]
  First detected (time after concentrate feeding): 1 h
  Low concentrations still detected at (time after concentrate feeding): 34 h
[1]; dorsal mat layer
  Traces still detected at (time after administration of ZEN-contaminated concentrate): 48 h
[1]; [4]
  Percentage of concentration relative to the sum of ZEN and ZEN metabolite concentrations: 0.0 (traces) %
[1]; ZEN treatment, 1 h
  Percentage of concentration relative to the sum of ZEN and ZEN metabolite concentrations: 7.6%
[1]; ZEN treatment, 4 h
  Percentage of concentration relative to the sum of ZEN and ZEN metabolite concentrations: 15.9%
[1]; ZEN treatment, 7 h
  Percentage of concentration relative to the sum of ZEN and ZEN metabolite concentrations: 21.3%
[1]; ZEN treatment, 10 h
  Percentage of concentration relative to the sum of ZEN and ZEN metabolite concentrations: 25.6%
[1]; ZEN treatment, 24 h
  Percentage of concentration relative to the sum of ZEN and ZEN metabolite concentrations: 49.8%
[1]; ZEN+ZenA treatment, 15 min
  Percentage of concentration relative to the sum of ZEN and ZEN metabolite concentrations: 0.0 (traces) %
[1]; ZEN+ZenA treatment, 1 h
  Percentage of concentration relative to the sum of ZEN and ZEN metabolite concentrations: 0.0%
[1]; ZEN+ZenA treatment, 4 h
  Percentage of concentration relative to the sum of ZEN and ZEN metabolite concentrations: 0.0%
[1]; ZEN+ZenA treatment, 7 h
  Percentage of concentration relative to the sum of ZEN and ZEN metabolite concentrations: 0.0%
[1]; ZEN+ZenA treatment, 10 h
  Percentage of concentration relative to the sum of ZEN and ZEN metabolite concentrations: 0.0 (traces) %
[1]; [5]
  Detected up until (time after concentrate feeding): 24 h
  First detected (time after concentrate feeding): 0.25 h
[1]; ZEN treatment
  Time to elimination: ≤ 34 h
[1]; ventral sac, ZEN+ZenA treatment
  Detection in rumen fluid: not detected
[2]; ZEN treatment, 10 h
  Percentage of concentration relative to the sum of ZEN and ZEN metabolite concentrations: 10.9%
[2]; [6]
  Percentage of concentration relative to the sum of ZEN and ZEN metabolite concentrations: 15.5%
[2]; ZEN+ZenA treatment, 10 h
  Percentage of concentration relative to the sum of ZEN and ZEN metabolite concentrations: 9.0%
Estrogen receptors
  Estrogenic potency relative to ZEN: 60 times
